Source: US8242160B2, “Inhibitors of ubiquitin E1” (The United States of America, as represented by the …, priority 2005, dated 2012)
Where a SMILES comes first, the peptide text is derived from it. [ ]: non-standard residue; d: D form. The star is where a group is joined. Nle = CCCC[C@H](N)C(=O)O; Cbz = O=C(OCc1ccccc1)*

Columns and labels:
Nedd4 = assay: In vitro autoubiquitination of HECT E3 Nedd4; assay type: biochemical
Description: It was then evaluated whether 4-[4-(5-nitro-furan-2-ylmethylene)-3,5-dioxo-pyrazolidin-1-yl]-benzoic acid methyl acid blocks autoubiquitination of both RING finger E3s (Mdm2) and HECT E3s (Nedd4) in vitro.
5 pmole per experimental point of bacterially expressed GST-Mdm2 (or GST-Nedd) is coupled to glutathione Sepharose (GS) for 30 minutes at room temperature with tumbling, followed by 3× wash with 50 mM Tris pH 7.5. Following this, 20 μl of 1× buffer is added (40 μl 10× reaction buffer*, 40 μl 10× PCK**, 320 μl dH2O). The test compound in DMSO is then added to the desired concentration with an equal volume of DMSO used as a control. Samples are incubated with shaking for 1 hr at 23° C. To carry out the reaction, a pre-made cocktail of Rabbit E1 (Calbiochem #6620700)/UbCH5B/^32P Ub cocktail (1 μl/0.5 μl/1 μl) is added followed by 15 minutes shaking at 30° C. The reaction is terminated by addition of 8 μl 4× reducing SDS-PAGE loading buffer. After dissociating proteins from the beads at 100° C. for 2 minutes, samples are resolved on 6% PAGE followed by exposure of the dried gel to phosphor screen. Note: ^32P Ub is derived from GST-Ub that has been engineered to include a PKA phosphorylation site. This fusion protein is purified on glutathione Sepharose, phosphorylated, following this, the ^32P Ub ubiquitin is cleaved and purified away from the thrombin.

IκBα = assay: TNFα-induced IκBα degradation in cells; assay type: cell-based
cyclin E = assay: Degradation of in vitro translated cyclin E in S-100 cytosolic extract; assay type: biochemical
Description: Cytosolic extracts from cells (S-100) contain all the components for ubiquitination and proteasomal degradation. To further evaluate 4-[4-(5-nitro-furan-2-ylmethylene)-3,5-dioxo-pyrazolidin-1-yl]-benzoic acid methyl acid, we made use of in vitro translated cyclin E, which is degraded in S-100 in a time-dependent manner (FIG. 3, upper panel, lanes 1-4).

O=c1nc2n(-c3cccc(Cl)c3)c3ccc([N+](=O)[O-])cc3cc-2c(=O)[nH]1 [98CO7, 10-(-3-chloro-phenyl)-7-nitro-10H-pyrimido[4,5-b]quinoline-2,4-dione, reference compound]
autoubiquitination of Nedd4 (Nedd4): only has very moderate effects

CCCC[C@@H](C=O)NC(=O)[C@H](CC(C)C)NC(=O)[C@H](CC(C)C)NC(C)=O [ALLN, reference compound] (Ac-Leu-Leu-[Nle]-aldehyde)
TNFα-induced IκBα degradation (IκBα): prevents TNFα-induced IκBα degradation

CC(C)C[C@@H](C=O)NC(=O)[C@H](CC(C)C)NC(=O)[C@H](CC(C)C)NC(=O)OCc1ccccc1 [MG132, reference compound] (Cbz-Leu-Leu-Leu-aldehyde)
cyclin E degradation in S-100 (cyclin E; no exogenous E1): block cyclin E degradation | cyclin E degradation in S-100 after addition of purified exogenous E1 (cyclin E; purified exogenous E1 added to the reaction mixture): unable to overcome the block in cyclin E degradation
